Data published in patent publication US8058243B2, “Method for treating a brain cancer with ifenprodil” (HSC Research and Development Limited Partnership, priority 2006, dated 2011).
Counter-ions that a name gives are not always drawn. Like-named read-outs stand apart in the source and are kept apart here. Residues, ends and D or L forms follow the SMILES beside them. *: point of attachment. Cbz = O=C(OCc1ccccc1)*

Test system: murine neural precursor cells (neurosphere cultures)
Experiment: HTS of LOPAC library against secondary neurosphere cultures, MTT proliferation assay at 3 μM, day 7 (z score, P value)
Format: cell-based, mouse
[1] = LOPAC primary screen, neurosphere MTT proliferation, 3 μM, day 7
[2] = yes/no: significantly inhibited neurosphere proliferation (P<0.01) in primary screen
[3] = LOPAC screen, neurosphere MTT proliferation, 3 μM, day 7
[4] = LOPAC library screen, 3 μM, MTT, secondary neurosphere cultures, day 7
[5] = yes/no: significantly inhibited neurosphere proliferation in primary screen
[6] = yes = significantly inhibited neurosphere proliferation (P<0.01) in the primary screen
[7] = yes/no: significantly inhibited neurosphere proliferation (P<0.01) in the primary screen
[8] = LOPAC library screen at 3 μM, MTT, secondary neurosphere cultures, screened in singlets
[9] = LOPAC library screen at 3 μM, secondary neurosphere cultures, MTT
[10] = primary LOPAC screen, 3 μM, MTT, neurosphere proliferation
[11] = yes/no: significantly inhibited neurosphere proliferation in the primary screen
[12] = LOPAC library screen, 3 μM, MTT, neurosphere cultures

COC(=O)c1c(C)[nH]c(C)c1C(=O)c1ccccc1Cc1ccccc1 [FPL 64176]
Z Score: −1.099
Z score [1]: −1.099
Activity [2]: no

COC(=O)C1=C(C)NC(C)=C([N+](=O)[O-])C1c1ccccc1C(F)(F)F (racemic) [(±)-Bay K 8644]
Z score [3]: 0.853
Activity [2]: no

COc1ccc(C2CNC(=O)C2)cc1OC1CCCC1 (centres unmarked) [Rolipram]
Z Score [4]: −2.091
Z score [1]: −2.091
Activity [5]: no

C[N+](C)(C)CCC(=O)c1cccc2ccccc12.[I-] [2-(alpha-Naphthoyl)ethyltrimethylammonium iodide]
Z Score (168 h, 3 µM): −6.762
Z score (168 h, 3 µM): −6.762
Activity [6]: yes

Nc1nc(Nc2ccccc2)nc2c1ncn2[C@@H]1O[C@H](CO)[C@@H](O)[C@H]1O [2-Phenylaminoadenosine]
Z Score (168 h, 3 µM): 0.5728
Z score (168 h, 3 µM): 0.573
Activity [7]: no

O=c1c2ccccc2nc2n1CCc1c-2[nH]c2ccccc12 [Rutaecarpine]
Z Score (168 h, 3 µM): 0.6857
Z score (168 h, 3 µM): 0.686

COc1ccc(CCCOC(Cn2ccnc2)c2ccc(OC)cc2)cc1 (centres unmarked) [SKF 96365]
Z Score: −4.497
Z score [1]: −4.497
Activity [6]: yes

CC(C)(C)C1(O)CCN2CC3c4ccccc4CCc4cccc(c43)C2C1.Cl (single isomer, unassigned; (+)) [(+)-Butaclamol hydrochloride]
Z Score [4]: −11.27
Z score [1]: −11.274
Activity [7]: yes

CC(N)Cc1c[nH]c2ccc(OCc3cccs3)cc12 (centres unmarked) [BW 723C86]
Z Score: 0.7247
Z score [3]: 0.725
Activity [2]: no

C=C(C)[C@H]1Cc2c(ccc3c2O[C@@H]2COc4cc(OC)c(OC)cc4[C@@H]2C3=O)O1 [Rotenone]
Z Score: −11.27
Z score [1]: −11.274
Activity [6]: yes

CC(=O)OCC1=C(C(=O)O)N2C(=O)[C@@H](NC(=O)Cc3cccs3)[C@H]2SC1 [Cephalothin sodium]
Z Score [8]: 2.264
Z score [1]: 2.264
Activity [7]: no

CN1C2CCC1CC(OC(c1ccccc1)c1ccc(Cl)cc1)C2.Cl (centres unmarked)
Z Score: −9.672
Z score [1]: −9.672
Activity [7]: yes

COc1ccc2c(c1)c(CC(=O)O)c(C)n2C(=O)c1ccc(Cl)cc1 [Indomethacin]
Z Score [9]: −0.3563
Z score [1]: −0.356
Activity [7]: no

NNCCc1ccccc1 [Phenelzine sulfate]
Z Score [4]: −1.536
Z score [1]: −1.536
Activity [5]: no

CC(=O)NCCc1c[nH]c2ccccc12 [N-Acetyltryptamine]
Z Score: 1.02
Z score [10]: 1.020
Activity [11]: no

O=C(Nc1ccc([N+](=O)[O-])cc1Cl)c1cc(Cl)ccc1O [Niclosamide]
Z Score [4]: −2.784
Z score [1]: −2.784
Activity [7]: yes

Cn1cnc2c(NC3CCCC3)ncnc21 [N6-Cyclopentyl-9-methyladenine]
Z Score [4]: −2.112
Z score [1]: −2.112
Activity [5]: no

C=CCn1c(=O)c2c(nc(-c3ccc(S(=O)(=O)O)cc3)n2C)n(C)c1=O [1-Allyl-3,7-dimethyl-8-p-sulfophenylxanthine]
Z Score [4]: −2.178
Z score [10]: −2.178
Activity [11]: no

C=CC[C@H](N)C(=O)O [L-allylglycine]
Z Score (168 h, 3 µM): −1.155
Z score (168 h, 3 µM): −1.155
Activity [11]: no

O=C(O)CP(=O)(O)O [Phosphonoacetic acid]
Z Score [9]: −0.8885
Z score [1]: −0.888
Activity [5]: no

CCCn1c(=O)c2[nH]c(C3CCCC3)nc2n(CCC)c1=O [8-Cyclopentyl-1,3-dipropylxanthine]
Z Score (168 h, 3 µM): −0.07021
Z score (168 h, 3 µM): −0.070
Activity [2]: no

CC[C@H](C)[C@H]1O[C@]2(CC[C@@H]1C)C[C@@H]1C[C@@H](C/C=C(\C)[C@@H](O[C@H]3C[C@H](OC)[C@@H](O[C@H]4C[C@H](OC)[C@@H](O)[C@H](C)O4)[C@H](C)O3)[C@@H](C)/C=C/C=C3\CO[C@@H]4[C@H](O)C(C)=C[C@@H](C(=O)O1)[C@]34O)O2 [Ivermectin]
Z Score: 1.507
Z score [1]: 1.507
Activity [2]: no

5-Bromo-2$$-deoxyuridine
Z Score: 2.58

S=C(Nc1ccccc1)Nc1nccs1 [1-Phenyl-3-(2-thiazolyl)-2-thiourea]
Z Score (168 h, 3 µM): 1.208
Z score (168 h, 3 µM): 1.208
Activity [5]: no

CC1CN(S(=O)(=O)c2cccc3cnccc23)CCN1.Cl.Cl [L-701,324]
Z Score: 0.4513
Z score [1]: 0.451

NCS-356
Z Score: 2.833
Z score [1]: 2.833
Activity [6]: no

N[C@H](CO)C(=O)O [D-Serine]
Z Score [9]: −0.1429
Z score [1]: −0.143
Activity [5]: no

CC[C@H](C)C(=O)O[C@H]1CCC=C2C=C[C@H](C)[C@H](CC[C@@H]3C[C@@H](O)CC(=O)O3)[C@H]21 [Mevastatin]
Z Score [4]: −6.278
Z score [1]: −6.278
Activity [6]: yes

O=C(O)C1CCCNC1 (centres unmarked) [(B1)-Nipecotic acid]
Z Score: −0.7215

CC(C)(CO)Cc1cc(C(C)(C)C)c(O)c(C(C)(C)C)c1 [CGP-7930]
Z Score: −0.411
Z score [10]: −0.411
Activity [11]: no

Nc1ccc(CCNc2ncnc3c2ncn3[C@@H]2O[C@H](CO)[C@@H](O)[C@H]2O)cc1 [N6-2-(4-Aminophenyl)ethyladenosine]
Z Score (168 h, 3 µM): −1.323
Z score (168 h, 3 µM): −1.323
Activity [11]: no

CCC1(c2ccccc2)C(=O)NCNC1=O [Primidone]
Activity: no
Z Score [12]: 0.6187
Z score [1]: 0.619

(−)-Quinpirole hydrochloride
Z Score: −1.565
Z score: −1.565

CCOC(=O)c1cnc2c(cnn2CC)c1NN=C(C)C [Etazolate hydrochloride]
Z Score (168 h, 3 µM): −0.2465
Z score (168 h, 3 µM): −0.247
Activity [2]: no

CC(=O)CCCCn1c(=O)c2c(ncn2C)n(C)c1=O [Pentoxifylline]
Z Score [4]: −1.637
Z score [1]: −1.637
Activity [5]: no

Cl.NCCNC(=O)c1ncsc1-c1cccc(F)c1 [Ro 41-1049 hydrochloride]
Z Score: 1.328
Z score [1]: 1.328
Activity [5]: no

Cl.NCCC[C@](N)(C(=O)O)C(F)F (racemic)
Z Score [9]: −0.4244
Z score [3]: −0.424
Activity [2]: no

CC(C)[C@H](NC(=O)OCc1ccccc1)C(=O)N[C@H](C=O)Cc1ccccc1 [MDL 28170] (Cbz-Val-Phe-aldehyde)
Z Score (168 h, 3 µM): −1.139
Z score (168 h, 3 µM): −1.139

Cc1c2ccncc2c(C)c2c1[nH]c1ccccc12 [Ellipticine]
Z Score [4]: −8.321

CC(=O)C(C)=NO [2,3-Butanedione monoxime]
Z Score (168 h, 3 µM): −1.81
Z score (168 h, 3 µM): −1.810
Activity [11]: no

CN(C)C(=O)C(CCN1CCC(O)(c2ccc(Cl)cc2)CC1)(c1ccccc1)c1ccccc1 [Loperamide hydrochloride]
Z Score: −0.4976
Z score [1]: −0.498
Activity [2]: no

MDL 26,630 trihydrochloride
Z Score: 0.3274
Z score [1]: 0.327
Activity [6]: no

S(−)-p-Bromotetramisole oxalate
Z Score: −1.295
Z score [1]: −1.295
Activity [5]: no

COc1cc2ncnc(Nc3cccc(Cl)c3)c2cc1OC [Tyrphostin AG 1478]
Z Score [8]: 1.87
Z score [1]: 1.870
Activity [7]: no

NC(=O)c1ncn([C@@H]2O[C@H](CO)[C@@H](O)[C@H]2O)c1O [Mizoribine]
Z Score [8]: 1.642

Oc1ccc2c3c1O[C@H]1c4[nH]c5c(c4C[C@@]4(O)[C@@H](C2)N(CC2CC2)CC[C@]314)C[C@@]1(O)[C@H]2Cc3ccc(O)c4c3[C@@]1(CCN2CC1CC1)[C@H]5O4 [nor-Binaltorphimine dihydrochloride]
Z Score: 0.3881
Z score [1]: 0.388
Activity [6]: no

C[C@]12CCC(=O)C(O)=C1CC[C@@H]1[C@@H]2CC[C@]2(C)C(=O)CC[C@@H]12 [4-Androsten-4-ol-3,17-dione]
Z Score: 0.1944
Z score [10]: 0.194
Activity [11]: no

CC(=O)O.CSC(=N)NCCC[C@H](N)C(=O)O [S-Methyl-L-thiocitrulline acetate]
Z Score: −1.751
Z score [1]: −1.751
Activity [6]: no

O=C1NC(=O)C(c2ccccc2)(c2ccccc2)N1 [5,5-Diphenylhydantoin]
Z Score [12]: 1.383
Z score [3]: 1.383
Activity [2]: no

C/C=C(/C)C(=O)O[C@H]1C(C)=C2[C@H]([C@@H]1OC(=O)CCCCCCC)[C@@](C)(OC(C)=O)C[C@H](OC(=O)CCC)[C@@]1(O)[C@H]2OC(=O)[C@@]1(C)O [Thapsigargin]
Z Score [4]: −9.559
Z score [1]: −9.559
Activity [6]: yes

NS(=O)(=O)c1cc(C(=O)O)c(NCc2ccco2)cc1Cl [Furosemide]
Activity: no
Z Score [8]: 1.889
Z score [1]: 1.889

c1ccc(-c2ccccn2)nc1 [2,2′-Bipyridyl]
Z Score: 1.455
Z score [3]: 1.455
Activity [2]: no

CN1C[C@H](C(=O)N[C@]2(C)O[C@@]3(O)[C@@H]4CCCN4C(=O)[C@H](Cc4ccccc4)N3C2=O)C[C@@H]2c3cccc4[nH]cc(c34)C[C@H]21 [Dihydroergotamine methanesulfonate]
Z Score [9]: −0.7795
Z score [3]: −0.779
Activity [2]: no

N=C(N)NC(=O)c1nc(Cl)c(N2CCCCCC2)nc1N [5-(N,N-hexamethylene)amiloride]
Z Score [12]: 0.03855
Z score [10]: 0.039
Activity [11]: no
